{"source": "patent US6537978B1", "about": "“Oral administration of effective amounts of forms of hyaluronic acid” (Jagotec AG, priority 1996, dated 2003)", "key": {"rat carotid artery": {"test_system": "rat carotid artery", "experiment": "Stenosis after balloon angioplasty injury of the rat carotid artery, oral HA", "format": "in vivo", "conditions": "for N/I RATIO ± S.E.M. (NEOINTIMA /INTIMA RATIO WHERE N IS NEOINTIMA AND I IS INTIMA): rat carotid artery after balloon injury, mean of four animals", "description": "FIG. 6 consists of a series of photographs of the cross-sections through carotid arteries of rats showing the effects of different amounts of orally administered Hyaluronan in stenosis of the rat carotid arteries:\nAll vessels were injured with a fogherty balloon as described in the prior art (Forns et. al., 1994) Cross-sections of arteries of rats treated with HA, saline or left untreated are as shown:\nThese values represent the mean of, and standard error of the mean (S.E.M.) of, four animals. These experiments were repeated twice with similar results.\nFIG. 7 illustrates the effects of oral administration of HA on Neointimal formation in rats after balloon angioplasty. Six groups of tests were conducted, each test in respect of 3 rats. Thus, the six test results shown in […] resulted from the use of 18 rats. […] This is consistent with the findings illustrated in FIGS. 6 and 8 and the discussion herein."}, "[1]": {"experiment": "Rat serum hyaluronic acid levels and molecular weight after oral administration (gel filtration, carbazole and aggrecan ELISA-like assay)", "format": "in vivo", "conditions": "for serum/blood HA amount after oral compared with subcutaneous administration: oral 30 mg/kg vs subcutaneous 30-100 mg/kg", "procedure": "Elisa-Like Assay for Hyaluronic Acid in Column Fractions from Serum Obtained after the Oral Administration of Sodium Hyaluronate at 30 mg/kg (400.000)Daltons Mean Average Molecular Weight Distribution (Protein Standard), 2% by Weight in Sterile Water)\nusing 2 mL fraction volumes.\nB.) Elisa-Like Assay for Hyaluronic Acid\nPrior to assay the column fractions were prepared in the following manner:\n1900 μ.L of each 2 mL fraction was frozen at—80° C. and then taken to dryness on a speed vac concentrator at room temperature.\nfractions were reconstituted with 125 μ.L of ddH2O and then assayed.\nThe sharp drop in serum hyaluronic acid levels seen at 3 and 6 hours post-feeding appears to be a real event since it was reproduced in serum analyzed from two different animals for each time point. The overall trend appears to be satisfactory. It is indicative of an initial absorption of sodium hyaluronate in the stomach (1 hour post-feeding of HA) followed by a rapid clearance of this initial “pulse” from the blood. The second “pulse” of increased serum hyaluronic acid (9-12 hours post-feeding of HA) appears then to represent a second phase of absorption, as the administered sodium hyualuronate moves into the small and large intestine. The majority of serum hyaluronic acid at 1 hour and 9 hours post-feeding of HA (FIG. 3 (A), (D)) elutes in the region of V, indicating a molecular weight >71 kDa(Kilodaltons (high molecular weight species). Between 12-24 hours post-feeding (FIG. 3 (E), (G)), there appears to be an emergence of smaller molecular weight hyaluronic acid species in the molecular weight range between about 30 and about >80 kDa, and more particularly between 71-37.7 kDa (Kilo-daltons (peaks 1,2 and 3 in FIG. 1(G), representing 55.5, 47 and 38 kDa, respectively (Protein Standard). Two assays were used to measure HA in serum: (i) carbazole, and (ii) aggrecan assay.\nF: Carbazole Assay for the Determination of Glucuronic Acid\nFor this assay, a linear response has been achieved with hyaluronic acid standards up to 200 μg./mL, (the range of linearity is expected to be extendible to even higher standard concentrations).\nPlace 3 mL of 0.025 M sodium tetraborate solution in glass tubes and cool thoroughly on ice prior to addition of samples and standards.\nCarefully layer (so as to avoid mixing) 0.5 mL of sample or standard over the sodium tetraborate solution in the reaction tubes and place tubes back on ice until all tubes have been prepared.\nMix the contents of each tube thoroughly with a vortex mixer and return the tube to the ice, while mixing the others, to prevent excessive heating of sample.\nPlace reaction tubes in a 90° C. water bath for 10 minutes and then transfer to a tub of cool water for 5-10 minutes.\nAdd 100 μ.L of 0.125% carbazole solution to each tube and mix thoroughly with a vortex mixer.\nRe-heat the reaction tubes in the 90° C. water bath for an additional 15 minutes. Transfer to a tub of cool water for 5-10 minutes.\nMeasure absorbance of samples and standards at 530 nm.\nAfter completion of the reaction,transfter 200 μ.L of each sample and standard to individual wells of a 96 well microtest plate. Immediately measure the sample absorbance at 530 ηm (550 ηm, given the available filters with some instruments) using a microplate reader. Biotinylated Aggregcan, an HA binding protein, can be used to detect low levels of HA in serum by in ELISA assay that has been published and is known to persons skilled in the art. This assay is more sensitive than the carbazole assay and was used for conformation."}, "neutrophils": {"test_system": "neutrophils", "experiment": "MPO (myleoperoxidase) content, neutrophil accumulation at the site of restenosis, oral HA", "format": "in vivo, rat", "conditions": "FIG. 8", "description": "With respect to neutrophil accumulation, reference is to be had to FIG. 8—MPO Content (oral) where MPO is Myleoperoxidase and MPO has been assayed by the methods known to persons skilled in the art. This assay for detecting myleoperoxidase (which is an enzyme) is a good test and thus a good measure for detecting neutrophils."}, "[2]": {"experiment": "Human serum hyaluronan levels and molecular weight after oral administration", "format": "in vivo", "conditions": "oral 30.0 mg/kg, m.w. less than 750,000 daltons (Protein Standard), FIG. 10", "description": "FIGS. 11A, 11B and 11C illustrate the release of amounts of hyaluronic acid into the blood stream of individuals (human) who have taken hyaluronan orally and the molecular weights of the serum hyaluronan released by the bodily processes. The molecular weights of the hyaluronan released into the human blood serum appear to include amounts at peaks between 400,000 daltons and 600,000 daltons such as less than 500,000 daltons, between about 200,000 and about 300,000 such as greater than 200,000 daltons, and between about 30,000 daltons and about 80,000 daltons (determined using the Dextran Standard).\nFIG. 10 illustrates the mean serum hyaluronan concentration after giving individual humans oral dosages containing 30.0 mg/kg of hyaluronan (molecular weight less than 750,000 daltons determined by the Protein Standard)."}, "[3]": {"conditions": "oral 30 mg/kg, 12-24 hours post-feeding, Protein Standard"}}}
{"substance": "sodium hyaluronate [HA]", "values": [{"measurement": "N/I RATIO ± S.E.M. (NEOINTIMA /INTIMA RATIO WHERE N IS NEOINTIMA AND I IS INTIMA)", "setting": "rat carotid artery; 1 mg/kg orally", "value": "2.6 ± 0.8"}, {"measurement": "N/I RATIO ± S.E.M. (NEOINTIMA /INTIMA RATIO WHERE N IS NEOINTIMA AND I IS INTIMA)", "setting": "rat carotid artery; 3 mg/kg orally", "value": "1.7 ± 0.4"}, {"measurement": "N/I RATIO ± S.E.M. (NEOINTIMA /INTIMA RATIO WHERE N IS NEOINTIMA AND I IS INTIMA)", "setting": "rat carotid artery; 10 mg/kg orally", "value": "0.4 ± 0.03"}, {"measurement": "N/I RATIO ± S.E.M. (NEOINTIMA /INTIMA RATIO WHERE N IS NEOINTIMA AND I IS INTIMA)", "setting": "rat carotid artery; 30 mg/kg orally", "value": "0.99 ± 0.06"}, {"measurement": "N/I RATIO ± S.E.M. (NEOINTIMA /INTIMA RATIO WHERE N IS NEOINTIMA AND I IS INTIMA)", "setting": "rat carotid artery; 100 mg/kg orally", "value": "1.1 ± 0.08"}, {"measurement": "neointimal to total wall ratio, order of the dose groups", "setting": "rat carotid artery; oral HA, rats after balloon angioplasty, 3 rats per group, FIG. 7", "value": "greater for administration of saline, followed by the administration of HA in amounts per kilogram of body weight of 1 mg, then 100 mg, 10 mg and 3 mg"}, {"measurement": "oral dose with optimal effects on smooth muscle cell proliferation", "setting": "rat carotid artery; oral administration, rat, FIG. 6", "value": "3 to 10", "unit": "mg/kg"}, {"measurement": "serum/blood HA amount after oral compared with subcutaneous administration", "setting": "[1]", "value": "similar"}, {"measurement": "serum/blood HA amount after oral compared with subcutaneous administration", "setting": "[1]; listed as sodium hyaluronate", "value": "on the order of that seen for the subcutaneous administration of this compound at 30-100 mg/kg"}, {"measurement": "molecular weight of serum hyaluronic acid, peak 1", "setting": "[1]; [3]", "value": 55.5, "unit": "kDa"}, {"measurement": "molecular weight of serum hyaluronic acid, peak 2", "setting": "[1]; [3]", "value": 47, "unit": "kDa"}, {"measurement": "molecular weight of serum hyaluronic acid, peak 3", "setting": "[1]; [3]", "value": 38, "unit": "kDa"}, {"measurement": "molecular weight of the majority of serum hyaluronic acid", "setting": "[1]; oral 30 mg/kg, 1 hour and 9 hours post-feeding, Protein Standard", "value": "> 71", "unit": "kDa"}, {"measurement": "time course of HA in blood after oral administration", "setting": "[1]; oral 30 mg/kg, FIG. 3", "value": "burst of HA in blood one hour after administration, a decrease for five hours followed by a steady increase over the next eighteen hours"}, {"measurement": "time after administration at which serum hyaluronan levels increase", "setting": "[1]; oral 30 mg/kg, FIG. 4", "value": "about 1.25 hours"}, {"measurement": "first increase of serum hyaluronic acid after oral administration", "setting": "[1]; single oral dose 30 mg/kg, 2% in sterile water", "value": "increased within the first hour"}, {"measurement": "serum hyaluronic acid after the first pulse", "setting": "[1]; single oral dose 30 mg/kg, 3 and 6 hours post-feeding", "value": "sharp decrease to background levels in normal serum at 3 and 6 hours post-feeding"}, {"measurement": "second increase of serum hyaluronic acid", "setting": "[1]; single oral dose 30 mg/kg, from 9 hours post-feeding", "value": "increase at 9 hours post-feeding of HA and this increase is sustained over the time period extending up to 24 hours"}, {"measurement": "neutrophil number (MPO content) at the site of restenosis", "setting": "neutrophils", "value": "reduces the number of neutrophils"}, {"measurement": "time window of increased serum hyaluronan levels", "setting": "[2]", "value": "4 to 12", "unit": "h"}]}
